Data taken from patent publication US20230200394A1, “SELECTIVE HERBICIDES BASED ON SUBSTITUTED ISOXAZOLIN CARBOXAMIDES AND BENOXACOR” (BAYER AKTIENGESELLSCHAFT, priority 2020, published 2023).

Tested on: ZEAMA Sileno
Assay: Safener seed treatment; pre-emergence herbicide application, visual scoring of % crop damage in greenhouse
Type: in vivo, maize
Settings: for HER effect [%] / HER effect + SAF [%]: crop damage, pre-emergence; for HER effect [%]: herbicide alone (no safener); for HER effect + SAF [%]: seed treated with Benoxacor 0.25 g a.i./kg seed; for Reduction [Difference]: herbicide damage without safener minus with Benoxacor 0.25 g a.i./kg seed; for Reduction [%]: reduction of herbicide damage by Benoxacor 0.25 g a.i./kg seed, relative to damage without safener
Method: Seed Treatment; Pre-Emergence For the safener seed treatment, sufficient seeds of the respective crops (spring wheat, TRZAS; spring barley, HORVS; maize, ZEAMA) were weighed into screw top glass bottles approximately twice the volume of the seeds. The specified safeners, formulated as wettable powder (WP) were weighed out so that the specified rates (g a.i./kg seed) would be obtained, dissolved in water (1 ml water per 10 g of seeds), and added to the seeds to produce a slurry. The bottles were capped and then placed in an overhead shaker (set at medium speed for ca. 60 minutes) so that the seeds were evenly coated with the slurry. The bottles were uncapped and the seeds were either placed on paper and dried for an interval of 3-4 hours prior to sowing, or directly sown. Seeds were placed in sandy loam soil in pots of a diameter of 7-8 cm, and covered with soil. Pre-emergence application of the specified herbicides was done subsequently, on two sets of plants: a) seed treatment with safener, as described above b) no safener treatment The herbicides were formulated as WP and was sprayed onto the soil surface as an aqueous suspension at an equivalent water application rate of 300 l/ha. After application, the test plants were kept in the greenhouse under good growth conditions. At intervals up to 4 weeks after application (=28 days after treatment; DAT), % crop damage observed on the treated plants was scored visually in comparison to control plants that had not received any safener or herbicide treatment. Values in the table below are mean values of at least 2 replicates.

[1] = HER dose 40 g a.i./ha, assessment 26 DAT
[2] = HER dose 40 g a.i./ha, assessment 14 DAT
[3] = HER dose 80 g a.i./ha, assessment 14 DAT

SMILES | HER effect [%] [1] | HER effect + SAF [%] (HER dose 40 g a.i./ha, 26 DAT) | Reduction [Difference] (HER dose 40 g a.i./ha, 26 DAT) | Reduction [%] (HER dose 40 g a.i./ha, 26 DAT) | HER effect [%] [2] | HER effect [%] [3] | HER effect [%] (HER dose 80 g a.i./ha, assessment 26 DAT) | HER effect + SAF [%] (HER dose 40 g a.i./ha, 14 DAT) | HER effect + SAF [%] (HER dose 80 g a.i./ha, 14 DAT) | HER effect + SAF [%] (HER dose 80 g a.i./ha, 26 DAT) | Reduction [Difference] (HER dose 40 g a.i./ha, 14 DAT) | Reduction [Difference] (HER dose 80 g a.i./ha, 14 DAT) | Reduction [Difference] (HER dose 80 g a.i./ha, 26 DAT) | Reduction [%] (HER dose 40 g a.i./ha, 14 DAT) | Reduction [%] (HER dose 80 g a.i./ha, 14 DAT) | Reduction [%] (HER dose 80 g a.i./ha, 26 DAT)
C=CC1(C(=O)NC2COC(C(=O)OC)C2)CC(c2cc(F)cc(F)c2)=NO1 (mixture of isomers) [Example 1.68] | 95% | 60% | 35 | 37% | – | – | – | – | – | – | – | – | – | – | – | –
C=CC1(C(=O)NC2C=CC(C(=O)OC)C2)CC(c2cc(F)cc(F)c2)=NO1 (stereo not shown) [Example 1.26] | 50% | 5% | 45 | 90% | 25% | 70% | 70% | 5% | 35% | 30% | 20 | 35 | 40 | 80% | 50% | 57%
CC1(C(=O)NC2C=CC(C(=O)O)C2)CC(c2cc(F)cc(F)c2)=NO1 (stereo not shown) [Example 1.36] | – | – | – | – | 60% | 83% | – | 40% | 60% | – | 20 | 23 | – | 33% | 28% | –
